Test results published in ChEMBL document CHEMBL3045893, “QSAR analysis of N-myristoyltransferase inhibitors: antifungal activity of benzofurans” (Med Chem Res, 2009).

Biological target: T1, Glycylpeptide N-tetradecanoyltransferase (Candida albicans (strain SC5314 / ATCC MYA-2876) (Yeast), UniProt P30418)
T1 sequence (P30418 whole entry): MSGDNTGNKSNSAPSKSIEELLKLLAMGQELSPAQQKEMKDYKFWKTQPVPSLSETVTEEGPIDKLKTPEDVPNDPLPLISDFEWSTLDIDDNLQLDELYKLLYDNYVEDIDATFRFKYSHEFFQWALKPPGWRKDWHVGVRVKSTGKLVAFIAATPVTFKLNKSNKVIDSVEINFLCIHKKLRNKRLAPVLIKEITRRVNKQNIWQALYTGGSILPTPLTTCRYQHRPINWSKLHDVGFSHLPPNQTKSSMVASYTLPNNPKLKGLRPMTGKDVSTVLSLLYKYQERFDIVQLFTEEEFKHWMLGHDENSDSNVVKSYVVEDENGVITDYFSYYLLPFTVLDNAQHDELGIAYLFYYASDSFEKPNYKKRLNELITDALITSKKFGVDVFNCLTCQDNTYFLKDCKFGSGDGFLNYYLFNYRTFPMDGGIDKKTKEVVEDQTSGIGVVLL
Experiment: Inhibition of candida N-myristoyltransferase

Structure (SMILES) | IC50
CCOC(=O)c1oc2cccc(OCCCCNC(C)(C)C)c2c1C | 4400 nM
Cc1c(COc2ccccc2C#N)oc2cccc(OCCNCc3cccnc3)c12 | 17 nM
Cc1c(CCc2ccccc2)oc2cccc(OCCNCc3cccnc3)c12 | 1200 nM
CCOC(=O)c1oc2cccc(OCCNC(C)(C)C)c2c1C | 50000 nM
Cc1c(COc2ccc(C#N)cc2)oc2cccc(OCCNCc3cccnc3)c12 | 9.4 nM
Cc1c(C(=O)Nc2ccccc2)oc2cccc(OCCNCc3cccnc3)c12 | 2200 nM
Cc1c(COc2ccccc2)oc2cccc(OCCNCc3cccnc3)c12 | 72 nM
COCc1ccc2oc(-c3oc4cccc(OCCNCc5cccnc5)c4c3C)cc2c1 | 3 nM
CCOC(=O)c1oc2cccc(OCCNCc3cccnc3)c2c1C | 100 nM
Cc1c(COc2ccc(F)cc2)oc2cccc(OCCNCc3cccnc3)c12 | 5.2 nM
CCOC(=O)c1oc2cccc(OCC(O)CNC(C)(C)C)c2c1C (stereo not drawn) | 1200 nM
CC(=O)c1nccn1-c1oc2cccc(OCCNCc3cccnc3)c2c1C | 1 nM
CCOC(=O)c1oc2cccc(OCCNCc3cccnc3)c2c1C(C)C | 83000 nM
CCOC(=O)c1oc2cccc(OCCNCc3cccnc3)c2c1CC | 10000 nM
Cc1c(COc2ccccc2F)oc2cccc(OCCNCc3cccnc3)c12 | 8.3 nM
CCOC(=O)c1cc2c(OCCNCc3cccnc3)cccc2o1 | 79000 nM
CCOC(=O)c1oc2cccc(OCCCN3CCCCC3)c2c1C | 1600 nM
CCOC(=O)c1oc2cccc(OCCNCc3cccnc3)c2c1C1CC1 | 4400 nM
Cc1c(COc2cccc(F)c2)oc2cccc(OCCNCc3cccnc3)c12 | 110 nM
CCOC(=O)c1oc2cccc(OCCCCCNC(C)(C)C)c2c1C | 1500 nM
CCOC(=O)c1oc2cccc(OCCNCc3ccccc3)c2c1C | 3300 nM
Cc1c(COc2ccc(F)cc2F)oc2cccc(OCCNCc3cccnc3)c12 | 7.5 nM
Cc1c(COc2ccc(Cl)cc2)oc2cccc(OCCNCc3cccnc3)c12 | 73 nM
